Source: patent publication US10793575B2, “Oxoisoquinoline derivatives” (CARNA BIOSCIENCES, INC., priority 2016, dated 2020)

Experiments:
OCI-Ly10 cells = test: Proliferation-Inhibitory Test Against Diffuse Large-Cell B-Cell Lymphoma OCI-Ly10 Strain; format: cell-based; details: Homo sapiens, 96 hours, alamarBlue
In short: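 In IMDM with 20% FBS, OCI-Ly10 cells (20000 cells/well) were exposed to compound at 0.9 nM to 30000 nM (0.3% DMSO final) for 96 hours. Viability was then read with alamarBlue reagent.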

dephosphorylated BTK = dephosphorylated BTK (Homo sapiens (Human), UniProt Q06187); test: BTK Activity Inhibition Test (mobility shift assay); format: biochemical; details: 200 μM ATP, read-out: Inhibitory Activity on BTK
Sequence of dephosphorylated BTK (Q06187 whole entry): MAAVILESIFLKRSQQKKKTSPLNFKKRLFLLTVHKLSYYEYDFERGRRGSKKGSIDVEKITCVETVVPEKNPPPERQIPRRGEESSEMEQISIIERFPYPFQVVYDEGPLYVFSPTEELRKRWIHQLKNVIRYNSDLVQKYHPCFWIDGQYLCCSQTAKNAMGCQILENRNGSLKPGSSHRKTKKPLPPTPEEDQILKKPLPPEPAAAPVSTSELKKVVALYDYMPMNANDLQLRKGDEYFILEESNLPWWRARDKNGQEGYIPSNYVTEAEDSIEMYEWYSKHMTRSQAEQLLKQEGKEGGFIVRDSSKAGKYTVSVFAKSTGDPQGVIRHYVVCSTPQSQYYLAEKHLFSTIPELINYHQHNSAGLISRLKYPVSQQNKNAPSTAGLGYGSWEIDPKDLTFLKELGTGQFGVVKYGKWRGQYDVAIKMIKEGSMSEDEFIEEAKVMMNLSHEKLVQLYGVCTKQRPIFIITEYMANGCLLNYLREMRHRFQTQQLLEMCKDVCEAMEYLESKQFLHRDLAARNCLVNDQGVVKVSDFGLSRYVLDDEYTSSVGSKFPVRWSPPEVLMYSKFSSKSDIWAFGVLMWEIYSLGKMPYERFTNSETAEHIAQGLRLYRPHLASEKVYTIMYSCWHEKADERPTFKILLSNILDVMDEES
Procedure: Dephosphorylated BTK was obtained by adding λ protein phosphatase (manufactured by New England BioLabs Inc., Code No. P0753S) and MnCl2 at 10 U/μg and 2 mM, respectively, to biotinylated BTK protein BTN-BTK (Manufactured by Carna Biosciences, Inc.) enzyme solution, reacting the mixture at 4° C. overnight, and removing of λ protein phosphatase by anti […]-tag antibody agarose gel chromatography, followed by buffer exchange using a 10DG Desalting Column.
The kinase activity was measured using QuickScout Screening Assist (trade mark) MSA (commercially available kit manufactured by Carna Biosciences, Inc.) by mobility shift assay (MSA) method. The substrate of the kinase reaction was an FITC-labeled SRCtide peptide included in the kit. An assay buffer [20 mM HEPES, 0.01% Triton X-100 (Trade mark), 2 mM dithiothreitol, pH 7.5] was used and adjusted at 4 μM substrate, 20 mM MgCl2 and 200 μm ATP to obtain a substrate mixture solution. The enzyme solution was also prepared by diluting the dephosphorylated BTK to 0.46 nM using the assay buffer. The 10 mM solution of the test compound in DMSO was further diluted with DMSO to 10 levels of the concentration (0.00003 mM, 0.0001 mM, 0.0003 mM, 0.001 mM, 0.003 mM, 0.01 mM, 0.03 mM, 0.1 mM, 0.3 mM, 1 mM), each of which was subjected to a 25-fold dilution with the assay buffer to obtain the drug solutions (4% DMSO solutions). 5 μL of the drug solution or a control solution (4% DMSO-assay buffer), 5 μL of the substrate mixture solution, and 10 μL of the enzyme solution were mixed in the wells of a polypropylene 384-well plate and allowed to react at room temperature for 2 hours, and then quenched by adding 60 μL of the termination buffer included in the kit. Subsequently, the quantities of the substrates (S) and the phosphorylated substrate (P) in the reaction solution were measured using LabChip EZ Reader II system (manufactured by Caliper Life Sciences) according to the protocol of the assay kit.
(§1) The heights of the peaks of the isolated substrate and the phosphorylated substrate were represented as S and P, respectively, and a blank which contained the assay buffer instead of the enzyme solution was also measured.
(§2) The inhibition rate (%) of the test compound was calculated according to the following equation; Inhibition rate (%)=(1−(C−A)/(B−A))×100 • wherein, A, B and C represent P/(P+S) of the blank well, P/(P+S) of the control well and P/(P+S) of the compound-containing well, respectively.
(§3) The IC50 value was calculated via a regression analysis of the inhibition rate (%) and the test compound concentration (logarithmic value).

wild type BTK [BTK(WT)] = wild type BTK [BTK(WT)] (Homo sapiens (Human), UniProt Q06187); test: C481S Mutant BTK Inhibitory Activity Test, wild type BTK (mobility shift assay); format: biochemical; details: 120 μM ATP
Sequence of wild type BTK [BTK(WT)] (Q06187 whole entry): as above
Procedure: (§4) The kinase activity was measured using QuickScout Screening Assist (trademark) MSA (commercially available kit manufactured by Carna Biosciences, Inc.) by mobility shift assay (MSA) method. The substrate of the kinase reaction was an FITC-labeled SRCtide peptide included in the kit. […] The 10 mM solution of the test compound in DMSO was further diluted with DMSO to 10 levels of the concentration (0.00003 mM, 0.0001 mM, 0.0003 mM, 0.001 mM, 0.003 mM, 0.01 mM, 0.03 mM, 0.1 mM, 0.3 mM, 1 mM), each of which was subjected to a 25-fold dilution with the assay buffer to obtain the drug solutions (4% DMSO solutions).
(§5) 5 μL of the drug solution or a control solution (4% DMSO-assay buffer), 5 μL of the substrate mixture solution, and 10 μL of the enzyme solution were mixed in the wells of a polypropylene 384-well plate and allowed to react at room temperature for 1 hour, and then quenched by adding 60 μL of the termination buffer included in the kit. Subsequently, the quantities of the substrates (S) and the phosphorylated substrate (P) in the reaction solution were measured using LabChip EZ Reader II system (manufactured by Caliper Life Sciences) according to the protocol of the assay kit.
as §1, §2, §3

[1] = target: C481S mutant BTK [BTK(C481S)] (Homo sapiens (Human), UniProt Q06187, C481S); test: C481S Mutant BTK Inhibitory Activity Test (mobility shift assay); format: biochemical; details: for IC50: C481S mutant BTK, 100 μM ATP; for C481S mutation-resistance: IC50[BTK(C481S)]/IC50[BTK(WT)]
Sequence of C481S mutant BTK [BTK(C481S)] (Q06187 whole entry C481S): as the sequence (Q06187 whole entry) above, with C481S counted along it
Procedure: as §4, §5, §1, §2, §3

| IC50 (OCI-Ly10 cells) | IC50 (dephosphorylated BTK) | IC50 (wild type BTK [BTK(WT)]) | IC50 [1] | C481S mutation-resistance [1] | SMILES |
| --- | --- | --- | --- | --- | --- |
| 10 nM | – | 0.43 nM | 0.78 nM | 1.8 | CN(C)Cc1ccc(-c2cc3c(-c4cccc(-n5ccc6cc(C7CC7)cc(F)c6c5=O)c4CO)nc(N)nc3[nH]2)cc1 [Example 51, 2-[3-(2-amino-6-{4-[(dimethylamino)methyl]phenyl}-7H-pyrrolo[2,3-d]pyrimidin-4-yl)-2-(hydroxymethyl)phenyl]-6-cyclopropyl-8-fluoroisoquinolin-1(2H)-one] |
| 15 nM | – | 0.43 nM | 0.76 nM | 1.8 | CCN(CC)Cc1ccc(-c2cc3c(-c4cccc(-n5ccc6cc(C7CC7)cc(F)c6c5=O)c4CO)nc(N)nc3[nH]2)cc1 [Example 52, 2-[3-(2-amino-6-{4-[(diethylamino)methyl]phenyl}-7H-pyrrolo[2,3-d]pyrimidin-4-yl)-2-(hydroxymethyl)phenyl]-6-cyclopropyl-8-fluoroisoquinolin-1(2H)-one] |
| 25 nM | – | 0.51 nM | 0.9 nM | 1.8 | Nc1nc(-c2cccc(-n3ccc4cc(C5CC5)cc(F)c4c3=O)c2CO)c2cc(-c3ccc(CN4CCCC4)cc3)[nH]c2n1 [Example 53, 2-(3-{2-amino-6-[4-(pyrrolidin-1-ylmethyl)phenyl]-7H-pyrrolo[2,3-d]pyrimidin-4-yl}-2-(hydroxymethyl)phenyl)-6-cyclopropyl-8-fluoroisoquinolin-1(2H)-one] |
| 17 nM | – | 0.58 nM | 0.86 nM | 1.5 | Nc1nc(-c2cccc(-n3ccc4cc(C5CC5)cc(F)c4c3=O)c2CO)c2cc(-c3ccc(CN4CCCCC4)cc3)[nH]c2n1 [Example 54, 2-(3-{2-amino-6-[4-(piperidin-1-ylmethyl)phenyl]-7H-pyrrolo[2,3-d]pyrimidin-4-yl}-2-(hydroxymethyl)phenyl)-6-cyclopropyl-8-fluoroisoquinolin-1(2H)-one] |
| 5 nM | – | 0.36 nM | 0.57 nM | 1.6 | Nc1nc(-c2cccc(-n3ccc4cc(C5CC5)cc(F)c4c3=O)c2CO)c2cc(-c3ccc(CN4CCN(CCO)CC4)cc3)[nH]c2n1 [Example 61, 2-{3-[2-amino-6-(4-{[4-(2-hydroxyethyl)piperazin-1-yl]methyl}phenyl)-7H-pyrrolo[2,3-d]pyrimidin-4-yl]-2-(hydroxymethyl)phenyl}-6-cyclopropyl-8-fluoroisoquinolin-1(2H)-one] |
| – | – | 0.39 nM | 0.58 nM | 1.5 | CN1CCN(C(=O)N2CC=C(c3cc4c(-c5cccc(-n6ccc7cc(C8CC8)cc(F)c7c6=O)c5CO)nc(N)nc4[nH]3)CC2)CC1 [Example 71, 2-(3-{2-amino-6-[1-(4-methylpiperazine-1-carbonyl)-1,2,3,6-tetrahydropyridin-4-yl]-7H-pyrrolo[2,3-d]pyrimidin-4-yl}-2-(hydroxymethyl)phenyl)-6-cyclopropyl-8-fluoroisoquinolin-1(2H)-one] |
| – | – | 0.52 nM | 0.95 nM | 1.8 | CN(C)C(=O)N1CC=C(c2cc3c(-c4cccc(-n5ccc6cc(C7CC7)cc(F)c6c5=O)c4CO)nc(N)nc3[nH]2)CC1 [Example 87, 4-{2-amino-4-[3-(6-cyclopropyl-8-fluoro-1-oxoisoquinolin-2(1H)-yl)-2-(hydroxymethyl)phenyl]-7H-pyrrolo[2,3-d]pyrimidin-6-yl}-N,N-dimethyl-5,6-dihydropyridine-1(2H)-carboxamide] |
| – | – | 0.41 nM | 0.99 nM | 2.4 | Nc1nc(-c2cccc(-n3ccc4cc(C5CC5)cc(F)c4c3=O)c2CO)c2cc(C3=CCNCC3)[nH]c2n1 [Example 93, 2-{3-[2-amino-6-(1,2,3,6-tetrahydropyridin-4-yl)-7H-pyrrolo[2,3-d]pyrimidin-4-yl]-2-(hydroxymethyl)phenyl}-6-cyclopropyl-8-fluoroisoquinolin-1(2H)-one] |

Second part, the molecule before the results:

| SMILES | IC50 (OCI-Ly10 cells) | IC50 (dephosphorylated BTK) | IC50 (wild type BTK [BTK(WT)]) | IC50 [1] | C481S mutation-resistance [1] |
| --- | --- | --- | --- | --- | --- |
| Nc1nc(-c2cccc(-n3ccc4cc(C5CC5)cc(F)c4c3=O)c2CO)c2cc(-c3ccc(F)cc3F)[nH]c2n1 [Example 35, 2-{3-[2-amino-6-(2,4-difluorophenyl)-7H-pyrrolo[2,3-d]pyrimidin-4-yl]-2-(hydroxymethyl)phenyl}-6-cyclopropyl-8-fluoroisoquinolin-1(2H)-one] | 428 nM | < 10 nM | – | – | – |
| Nc1nc(-c2cccc(-n3ccc4cc(C5CC5)cc(F)c4c3=O)c2CO)c2cc(-c3ccc(F)c(F)c3)[nH]c2n1 [Example 36, 2-{3-[2-amino-6-(3,4-difluorophenyl)-7H-pyrrolo[2,3-d]pyrimidin-4-yl]-2-(hydroxymethyl)phenyl}-6-cyclopropyl-8-fluoroisoquinolin-1(2H)-one] | 450 nM | < 10 nM | – | – | – |
| Nc1nc(-c2cccc(-n3ccc4cc(C5CC5)cc(F)c4c3=O)c2CO)c2cc(-c3ccc(C(F)(F)F)cc3)[nH]c2n1 [Example 37, 2-(3-{2-amino-6-[4-(trifluoromethyl)phenyl]-7H-pyrrolo[2,3-d]pyrimidin-4-yl}-2-(hydroxymethyl)phenyl)-6-cyclopropyl-8-fluoroisoquinolin-1(2H)-one] | 499 nM | < 10 nM | – | – | – |
| Nc1nc(-c2cccc(-n3ccc4cc(C5CC5)cc(F)c4c3=O)c2CO)c2cc(-c3ccc(OC(F)(F)F)cc3)[nH]c2n1 [Example 38, 2-(3-{2-amino-6-[4-(trifluoromethoxy)phenyl]-7H-pyrrolo[2,3-d]pyrimidin-4-yl}-2-(hydroxymethyl)phenyl)-6-cyclopropyl-8-fluoroisoquinolin-1(2H)-one] | 366 nM | 10 to 100 nM | – | – | – |
| NCc1cc2c(-c3cccc(-n4ccc5cc(C6CC6)cc(F)c5c4=O)c3CO)nc(N)nc2[nH]1 [Example 39, 2-{3-[2-amino-6-(aminomethyl)-7H-pyrrolo[2,3-d]pyrimidin-4-yl]-2-(hydroxymethyl)phenyl}-6-cyclopropyl-8-fluoroisoquinolin-1(2H)-one] | 1050 nM | 10 to 100 nM | – | – | – |
| Nc1nc(-c2cccc(-n3ccc4cc(C5CC5)cc(F)c4c3=O)c2CO)c2cc(-c3cccc(C(F)(F)F)c3)[nH]c2n1 [Example 40, 2-(3-{2-amino-6-[3-(trifluoromethyl)phenyl]-7H-pyrrolo[2,3-d]pyrimidin-4-yl}-2-(hydroxymethyl)phenyl)-6-cyclopropyl-8-fluoroisoquinolin-1(2H)-one] | 1330 nM | < 10 nM | – | – | – |
| CNc1cc(-c2cc3c(-c4cccc(-n5ccc6cc(C7CC7)cc(F)c6c5=O)c4CO)nc(N)nc3[nH]2)ccn1 [Example 50, 2-(3-{2-amino-6-[2-(methylamino)pyridin-4-yl]-7H-pyrrolo[2,3-d]pyrimidin-4-yl}-2-(hydroxymethyl)phenyl)-6-cyclopropyl-8-fluoroisoquinolin-1(2H)-one] | 52 nM | – | 0.77 nM | 1.6 nM | 2.1 |
